From patent publication EP2979694B1, “Dimercaptosuccinic acid for the treatment of multidrug resistant bacterial infections” (priority 2014, dated 2016)

Legend:
Test in all cases: MIC of carbapenems with or without DMSA
K.p. 6852 = format: cell-based, K. pneumoniae; details: K.p. 6852, IMP-1 + SHV-5; no DMSA; unit assumed
Method: (§1) Minimum inhibitory concentrations (MICs) of carbapenems were determined in-vitro with strains (reference and clinical) producing the three main types of class B carbapenemases which are IMP, VIM and NDM, with or without EDTA and DMSA.
(§2) MICs of imipenem was determined for E. coli TOP10 pCR2.1-(PNDM-1-blaNDM-1-bleMBL) in the presence of 0, 0.01, 0.1 or 1 mg/ml of Ca-EDTA or DMSA by using the broth microdilution method in zinc-complemented M9CA minimum medium (SD7025, Euromedex, France).
(§3) A 100 mM DMSA stock solution (Sigma Aldrich, France) (pH 5.0) was prepared in 0.2 M NaOH as recommended (Maiorino et al. 1990) and pH was neutralized to pH 7.0 with NaHCO3 Na2Ca-EDTA (Sigma Aldrich, France) dissolved in water.
(§4) The strains were as follows: VIM producers (n=10), IMP producers (n=9), NDM-1 producers (n=10). The selected concentration of DMSA was 10-fold (0.3 mM) and 100-fold (3 mM) that of the human peak serum concentration after oral administration (Asiedu et al;, 1995), and that of Ca-EDTA was assayed at the fixed concentration of 0.2 mM (Table 2). […]

K.p. KIE = format: cell-based, K. pneumoniae; details: NDM-1 + SHV-38 + CMY-16 + OXA-10, no DMSA, unit assumed
Method: as §1, §2, §3, §4

K.p. 0709124 = format: cell-based, K. pneumoniae; details: K.p. 0709124, IMP-1b + TEM-15; no DMSA; unit assumed
Method: as §1, §2, §3, §4

K.p. TAW = format: cell-based, K. pneumoniae; details: IMP-8 + SHV-5, no DMSA, unit assumed
Method: as §1, §2, §3, §4

K.p. OMA1 = format: cell-based, K. pneumoniae; details: K.p. OMA1, NDM-1 + TEM-1 +CTX-M-15+ SHV-28 + OXA-1 + OXA-9; no DMSA; unit assumed
Method: as §1, §2, §3, §4

K.p. ROUM = format: cell-based, K. pneumoniae; details: VIM, no DMSA, unit assumed
Method: as §1, §2, §3, §4

E. coli DIH = format: cell-based; details: VIM-19, no DMSA, unit assumed
Method: as §1, §2, §3, §4

E. coli 1108013 = format: cell-based; details: E. coli 1108013, IMP-1 + TEM-1; no DMSA; unit assumed
Method: as §1, §2, §3, §4

E. cloacae 1008186 = format: cell-based; details: E. cloacae 1008186, IMP-1; no DMSA; unit assumed
Method: as §1, §2, §3, §4

E. cloacae 396715 = format: cell-based; details: E. cloacae 396715, VIM-1; no DMSA; unit assumed
Method: as §1, §2, §3, §4

E. cloacae KOW3 = format: cell-based; details: E. cloacae KOW3, VIM-1 + CTX-M-15+ TEM-1 + SHV-31; no DMSA; unit assumed
Method: as §1, §2, §3, §4

E. coli 405 = format: cell-based; details: E. coli 405, NDM-5 + TEM-1 +CTX-M-15; no DMSA; unit assumed
Method: as §1, §2, §3, §4

E. coli 1008077 = format: cell-based; details: E. coli 1008077, VIM-1 + TEM-3; no DMSA; unit assumed
Method: as §1, §2, §3, §4

E. coli JAP = format: cell-based; details: IMP-1, no DMSA, unit assumed
Method: as §1, §2, §3, §4

E. coli FEK = format: cell-based; details: NDM-4 + NDM-4 + OXA-1 + CTX-M-15, no DMSA, unit assumed
Method: as §1, §2, §3, §4

E. cloacae TAW = format: cell-based; details: IMP-8, no DMSA, unit assumed
Method: as §1, §2, §3, §4

E. cloacae 1008029 = format: cell-based; details: E. cloacae 1008029, VIM-1 + CTX-M-3; no DMSA; unit assumed
Method: as §1, §2, §3, §4

E. coli IBIS = format: cell-based; details: VIM-4, no DMSA, unit assumed
Method: as §1, §2, §3, §4

E. coli 162 = format: cell-based; details: E. coli 162, NDM-5 + TEM-1 +CTX-M-15; no DMSA; unit assumed
Method: as §1, §2, §3, §4

E. cloacae 1008183 = format: cell-based; details: E. cloacae 1008183, IMP-1; no DMSA; unit assumed
Method: as §1, §2, §3, §4

C. freundii MIG = format: cell-based; details: VIM-2 + TEM-1 +OXA-9 + OXA-10, no DMSA, unit assumed
Method: as §1, §2, §3, §4

E. coli RIC = format: cell-based; details: NDM-1 + CMY-16 + OXA-1 + OXA-10, no DMSA, unit assumed
Method: as §1, §2, §3, §4

E. coli IR5 = format: cell-based; details: E. coli IR5, NDM-1 + TEM-1 +CTX-M-15; no DMSA; unit assumed
Method: as §1, §2, §3, §4

E. coli ALL = format: cell-based; details: NDM-1 + TEM-1 +CTX-M-15+OXA-1 + OXA-2, no DMSA, unit assumed
Method: as §1, §2, §3, §4

E. coli 0404018 = format: cell-based; details: E. coli 0404018, VIM-1 + CMY-6; no DMSA; unit assumed
Method: as §1, §2, §3, §4

E. coli COUP = format: cell-based; details: NDM-7 + OXA-1 +CTX-M-15, no DMSA, unit assumed
Method: as §1, §2, §3, §4

E. coli BOUN = format: cell-based; details: NDM-4 + OXA-1, no DMSA, unit assumed
Method: as §1, §2, §3, §4

E. cloacae 1008085 = format: cell-based; details: E. cloacae 1008085, IMP-1; no DMSA; unit assumed
Method: as §1, §2, §3, §4

E. coli MAD = format: cell-based; details: VIM-1 + CTX-M-3, no DMSA, unit assumed
Method: as §1, §2, §3, §4

Measured: MIC

C[C@@H](O)[C@H]1C(=O)N2C(C(=O)O)=C(S[C@@H]3CN[C@H](C(=O)Nc4cccc(C(=O)O)c4)C3)[C@H](C)[C@H]12 [ETP, ertapenem]
4 µg/mL: K.p. KIE | E. cloacae TAW | E. coli 0404018
32 µg/mL: K.p. 0709124 | E. coli 1108013 | E. cloacae 1008186 | E. coli IR5 | E. coli COUP
8 µg/mL: E. coli DIH | E. cloacae 1008183 | E. coli RIC | E. cloacae 1008085
0.25 µg/mL: E. coli MAD
0.5 µg/mL: K.p. TAW | E. coli JAP
2 µg/mL: E. cloacae 396715 | E. coli IBIS | C. freundii MIG
16 µg/mL: E. coli ALL | E. coli BOUN
> 32 µg/mL: all other assays above
